In patent US12351574B2, “Selective ligands for modulation of GIRK channels” (Northeastern University, priority 2018, dated 2025):

Legend:
[1] = novel object recognition (NOR) test; type: in vivo, rat; conditions: 10 and 30 mg/kg
Method: Novel object recognition test (NORT): Novel object recognition test was performed in an open-field box measuring 100×100×20 cm as previously described. Prior to testing, the rats were allowed to explore the box for 5 min per day for 3 consecutive days with no objects present. Testing consisted of two 2 min trials. During a familiarization trial, two identical objects (plastic cylinders 6 cm in diameter and 12 cm tall in white and red) were placed in two adjacent corners. The animal was then released against the center of the opposite wall with its back to the objects. This was done to prevent coercion to explore the objects. The animals were regarded to be exploring when they were facing, sniffing, or biting the object with nose and/or forepaws. Immediately after familiarization, the rats received intraperitoneal (i.p.) injections of vehicle or ligands and were returned to its home cage. After a waiting period of 3 h (|T|=3 h), the rat was placed in the box again and test trial was performed. […] The times spent in exploring each object during both trials were recorded manually by using a stopwatch. […] Discrimination index (DI) was used to measure object recognition and is calculated as the difference in time exploring the novel (TN) versus familiar object (TF), then dividing this value by the total time spent exploring the two objects in the test trial. […]

GIRK1/4(VT-IV) = target: T1, GIRK1/4(VT-IV) (Homo sapiens, UniProt P48544+P48549, T94V/V92I); assay: TEVC in Xenopus oocytes, double mutant GIRK1/4(VT-IV); type: cell-based; conditions: GIRK1/4(VT-IV) double mutant
T1 construct: expressed in transfected cells; host or cells: Xenopus laevis oocytes (cRNA injection)
T1 sequence (P48549 1-501): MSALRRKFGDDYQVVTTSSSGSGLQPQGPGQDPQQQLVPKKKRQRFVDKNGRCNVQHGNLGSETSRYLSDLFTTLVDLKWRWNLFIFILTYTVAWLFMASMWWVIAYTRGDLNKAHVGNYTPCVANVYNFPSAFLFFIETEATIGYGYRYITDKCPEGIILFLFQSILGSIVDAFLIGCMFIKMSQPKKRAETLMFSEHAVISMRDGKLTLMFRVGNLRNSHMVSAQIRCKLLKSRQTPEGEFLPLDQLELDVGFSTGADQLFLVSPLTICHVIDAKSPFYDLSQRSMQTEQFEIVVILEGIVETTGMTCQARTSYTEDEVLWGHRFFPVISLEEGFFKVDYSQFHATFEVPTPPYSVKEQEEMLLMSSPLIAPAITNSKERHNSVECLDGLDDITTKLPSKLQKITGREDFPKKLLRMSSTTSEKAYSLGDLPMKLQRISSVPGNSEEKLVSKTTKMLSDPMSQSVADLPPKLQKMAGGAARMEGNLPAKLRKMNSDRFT
T1 sequence (P48544 1-419 V92I/T94V): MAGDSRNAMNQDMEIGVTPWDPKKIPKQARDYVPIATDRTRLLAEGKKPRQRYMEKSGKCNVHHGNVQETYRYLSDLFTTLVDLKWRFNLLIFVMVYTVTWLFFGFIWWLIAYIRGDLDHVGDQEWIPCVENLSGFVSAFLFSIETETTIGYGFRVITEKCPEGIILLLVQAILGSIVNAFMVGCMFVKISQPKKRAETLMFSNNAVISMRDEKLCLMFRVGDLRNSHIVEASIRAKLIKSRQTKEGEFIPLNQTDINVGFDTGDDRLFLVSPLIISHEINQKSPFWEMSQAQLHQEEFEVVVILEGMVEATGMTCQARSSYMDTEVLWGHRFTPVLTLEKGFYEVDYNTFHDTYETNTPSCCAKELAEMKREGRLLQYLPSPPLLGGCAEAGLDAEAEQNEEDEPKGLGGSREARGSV
Description: Molecular biology: For Xenopus oocyte expression, human GIRK1 and human GIRK4 cDNAs were subcloned into pGEMHE. For mammalian expression, human GIRK1 and human GIRK4 cDNAs were subcloned into pcDNA3 and pcDNA3.1/V5-His B, respectively (Invitrogen). Mouse GIRK2 cDNA was subcloned in the dual-function vector, pXoom. Point mutations were introduced using a standard Pfu-based mutagenesis technique according to the QuikChange protocol (Agilent). Mutations were verified by sequencing.
Electrophysiology of oocytes: Whole-oocyte currents were measured by conventional two-electrode voltage clamp (TEVC) with a GeneClamp 500 amplifier (Axon Instruments). Agarose cushion microelectrodes were filled with 1.5% (w/v) agarose in 3 M KCl and were used with resistances between 0.1 and 1.5 megaohms. […] Barium-sensitive basal currents from both groups, 1) Vehicle, 2) single concentration at 10 μM and 3) multiple concentrations of ML297 or GAT compounds in the presence of HK solution, were assessed at −80 mV using TEVC. Barium-sensitive currents were normalized to average basal current in the vehicle solutions. The HK solution contained the following: 96 mM KCl, 1 mM NaCl, 1 mM MgCl2, 5 mM KOH/HEPES, pH 7.4. The barium solution consisted of HK+10 mM BaCl2. Five to ten oocytes from the same batch (same frog) were recorded for each group, and the experiments were repeated in at least four batches. Data acquisition and analysis were carried out using pClamp9 (Molecular Devices) and OriginPro (Microcal) software.
To test these computational predictions, the inventors mutated each or both of the two M1 key wild-type GIRK4 subunit residues to the corresponding GIRK2 residues (GIRK4-V92I, GIRK4-T94V, GIRK4-V92I/T94V or GIRK4-dm) and vice-versa the GIRK2 residues to the corresponding GIRK4 ones (GIRK2-I97V, GIRK2-V99T, GIRK2-I97V/V99T or GIRK2-dm) (FIG. 35). […]

In the case of `Cc1cc(NC(=O)Nc2ccc(Br)s2)n(-c2ccccc2)n1` [GAT1508, 1-(5-bromothiophen-2-yl)-3-(3-methyl-1-phenyl-1H-pyrazol-5-yl)urea], the “discrimination index (in words)” value [1] is reported as “similar”, the EC50 (GIRK1/4(VT-IV)) is reported as 550 ± 110 nM and the EMAX (GIRK1/4(VT-IV)) is reported as 1.76±0.03. The Emax (GIRK1/4(VT-IV); read-out: EMAX, % of the control GIRK1/2) was 75%.
